Here are results for 47 compounds from the OPERA property sets (Mansouri et al. 2018).

Take `CCc1ssc(=O)c1-c1ccccc1`: the logP (as a rule, the decadic logarithm of the partition coefficient of the neutral form, usually between octanol and water) came out at 3.15.

The compound `Cc1cssc1=S` yielded a logP of 2.18.

The compound `S=c1ssc2ccccc12` registered a logP of 3.57.

Regarding `Cc1cc(=S)ss1`, the logP came to 1.89.

Compound `CCCc1cc(=O)ss1` gave a lipophilicity (logP) of 2.24.

Regarding `Cc1ssc(=O)c1C`, the logP amounted to 1.73.

`CCCc1c(C)ssc1=S`: the lipophilicity (logP) was 3.39.

Regarding `Cc1ssc(=S)c1Cc1ccccc1`, the logP was determined as 3.78.

`Cc1ccc(-c2cssc2=S)cc1` had a logP of 3.73.

`CCc1cc(=S)ss1` returned a logP of 2.31.

`CCCc1c(C)ssc1=O` displayed a logP of 2.96.

The compound `O=c1ssc2ccccc12` yielded a logP of 2.73.

Regarding `CCc1ssc(=O)c1CC`, the logP was found to be 2.78.

Regarding `Cc1c(-c2ccccc2)ssc1=S`, the logP is 3.95.

In turn, `CCCc1cssc1=S` registered a logP of 3.18.

Compound `CCCc1ssc(=S)c1C` returned a logP of 3.42.

As for `S=c1ssc2c1CCCCC2`, the logP was found to be 3.27.

As for `CCCc1cc(=S)ss1`, the lipophilicity (logP) worked out at 2.83.

`O=c1ccss1` showed a log partition coefficient (logP) of 0.82.

The compound `CCc1ssc(=S)c1CC` came in with a logP of 3.51.

Consider `O=c1ssc2c1CCCC2`, for which the logP came out at 2.4.

Turning to `CCc1ssc(=S)c1C`, the logP came out at 2.95.

Take `CCc1cssc1=O`: the log partition coefficient (logP) was found to be 1.9.

`Cc1ccc(-c2cc(=S)ss2)cc1`: the logP turned out to be 4.26.

Turning to `Cc1ssc(=O)c1-c1ccccc1`, the logP came out at 2.93.

In turn, `CCc1cssc1=S` gave a logP of 2.67.

`Cc1ssc(=S)c1C`: the logP is 2.45.

`CCc1c(C)ssc1=S` had a logP of 2.94.

Consider `O=c1cc(-c2ccccc2)ss1`, for which the lipophilicity (logP) stood at 3.01.

In the case of `S=c1ssc2c1CCC2`, the logP came out at 2.53.

Consider `CCCc1cssc1=O`, for which the logP was found to be 2.38.

The compound `COc1ccc(-c2cc(=S)ss2)cc1` gave a logP of 3.82.

Take `S=c1sscc1-c1ccccc1`: the logP came out at 3.2.

On to `CCc1cc(=O)ss1`, for which the logP was found to be 1.69.

Turning to `S=c1cc(-c2ccccc2)ss1`, the lipophilicity (logP) is 3.67.

`CCCCc1cssc1=S` displayed a log partition coefficient (logP) of 3.7.

Compound `CCc1ssc(=S)c1-c1ccccc1` registered a logP of 3.52.

On to `Cc1ssc(=S)c1-c1ccccc1`, for which the logP came to 3.17.

With `S=c1ssc2c1CCCCCC2`, the logP was 3.75.

With `Cc1cssc1=O`, the logP stood at 1.33.

`Cc1cc(=O)ss1` showed a logP of 1.26.

As to `CCCc1ssc(=S)c1CC`, the logP was 3.76.

For the compound `O=c1sscc1-c1ccccc1`, the logP came to 2.64.

With `CCCCCc1cssc1=S`, the logP came out at 4.06.

`S=c1ccss1` returned a logP of 1.58.

In the case of `COc1ccc(-c2ssc(=S)c2C)cc1`, the logP came out at 4.1.

`S=c1cc(Cc2ccccc2)ss1` yielded a logP of 3.43.
